Assay results from PubChem BioAssay (NCI).
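Results reflect a 48-hour exposure of cells in 96-well plates to compound at five concentrations. TGI denotes the concentration required for complete inhibition of growth.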

Key:
Assay in all cases: NCI tumour cell line growth inhibition, 48 h
MOLT-4 leukemia = test system: MOLT-4 leukemia
KM12 colon = test system: KM12 colon
IGROV1 ovarian = test system: IGROV1 ovarian
BT-549 breast = test system: BT-549 breast
EKVX NSCLC = test system: EKVX NSCLC
SK-OV-3 ovarian = test system: SK-OV-3 ovarian
A498 renal = test system: A498 renal
CAKI-1 renal = test system: CAKI-1 renal
OVCAR-4 ovarian = test system: OVCAR-4 ovarian
SF-539 CNS = test system: SF-539 CNS
NCI-H460 lung = test system: NCI-H460 lung
HCT-15 colon = test system: HCT-15 colon
SK-MEL-28 melanoma = test system: SK-MEL-28 melanoma
A549 NSCLC = test system: A549 NSCLC
UACC-62 melanoma = test system: UACC-62 melanoma
SF-295 CNS = test system: SF-295 CNS
M14 melanoma = test system: M14 melanoma
DU-145 prostate = test system: DU-145 prostate
SR leukemia = test system: SR leukemia
T-47D breast = test system: T-47D breast
RPMI-8226 leukemia = test system: RPMI-8226 leukemia
SN12C renal = test system: SN12C renal
MDA-N = test system: MDA-N
COLO 205 colon = test system: COLO 205 colon
UO-31 renal = test system: UO-31 renal
CCRF-CEM leukemia = test system: CCRF-CEM leukemia
HS 578T breast = test system: HS 578T breast
PC-3 prostate = test system: PC-3 prostate
TK-10 renal = test system: TK-10 renal
LOX IMVI melanoma = test system: LOX IMVI melanoma
SW-620 colon = test system: SW-620 colon
HL-60(TB) leukemia = test system: HL-60(TB) leukemia
MALME-3M melanoma = test system: MALME-3M melanoma
ACHN renal = test system: ACHN renal
OVCAR-5 ovarian = test system: OVCAR-5 ovarian
OVCAR-8 ovarian = test system: OVCAR-8 ovarian
SF-268 CNS = test system: SF-268 CNS
HT29 colon = test system: HT29 colon
K-562 leukemia = test system: K-562 leukemia
SK-MEL-5 melanoma = test system: SK-MEL-5 melanoma
SNB-19 CNS = test system: SNB-19 CNS
HOP-62 NSCLC = test system: HOP-62 NSCLC
NCI/ADR-RES ovarian = test system: NCI/ADR-RES ovarian
OVCAR-3 ovarian = test system: OVCAR-3 ovarian
NCI-H522 lung = test system: NCI-H522 lung
MDA-MB-231 breast = test system: MDA-MB-231 breast
SK-MEL-2 melanoma = test system: SK-MEL-2 melanoma
NCI-H23 lung = test system: NCI-H23 lung
SNB-75 CNS = test system: SNB-75 CNS
786-0 renal = test system: 786-0 renal
HOP-92 NSCLC = test system: HOP-92 NSCLC
MDA-MB-435 = test system: MDA-MB-435
UACC-257 melanoma = test system: UACC-257 melanoma
U251 CNS = test system: U251 CNS
HCC-2998 colon = test system: HCC-2998 colon
MCF7 breast = test system: MCF7 breast
NCI-H226 lung = test system: NCI-H226 lung
HCT-116 colon = test system: HCT-116 colon

CC(C)(C)OC(=O)n1c(Cl)c(C=O)c2ccccc21
TGI (MOLT-4 leukemia): > 100 µM | TGI (KM12 colon): 39.2 µM | TGI (IGROV1 ovarian): > 100 µM | TGI (BT-549 breast): 52.5 µM | TGI (EKVX NSCLC): 76.6 µM | TGI (SK-OV-3 ovarian): > 100 µM | TGI (A498 renal): > 100 µM | TGI (CAKI-1 renal): 35.4 µM | TGI (OVCAR-4 ovarian): > 100 µM | TGI (SF-539 CNS): 89.1 µM | TGI (NCI-H460 lung): 46.1 µM | TGI (HCT-15 colon): 70.4 µM | TGI (SK-MEL-28 melanoma): > 100 µM | TGI (A549 NSCLC): > 100 µM | TGI (UACC-62 melanoma): 43.3 µM | TGI (SF-295 CNS): > 100 µM | TGI (M14 melanoma): 82.9 µM | TGI (DU-145 prostate): 39.6 µM | TGI (SR leukemia): > 100 µM | TGI (T-47D breast): > 100 µM | TGI (RPMI-8226 leukemia): 44.3 µM | TGI (SN12C renal): 54.3 µM | TGI (MDA-N): > 100 µM | TGI (COLO 205 colon): > 100 µM | TGI (UO-31 renal): 41.3 µM | TGI (CCRF-CEM leukemia): 79.4 µM | TGI (HS 578T breast): > 100 µM | TGI (PC-3 prostate): 64.6 µM | TGI (TK-10 renal): 53.4 µM | TGI (LOX IMVI melanoma): 68.1 µM | TGI (SW-620 colon): > 100 µM | TGI (HL-60(TB) leukemia): > 100 µM | TGI (MALME-3M melanoma): 39.9 µM | TGI (ACHN renal): 52.9 µM | TGI (OVCAR-5 ovarian): 72.3 µM | TGI (OVCAR-8 ovarian): > 100 µM | TGI (SF-268 CNS): 36.2 µM | TGI (HT29 colon): > 100 µM | TGI (K-562 leukemia): > 100 µM | TGI (SK-MEL-5 melanoma): > 100 µM | TGI (SNB-19 CNS): > 100 µM | TGI (HOP-62 NSCLC): 43 µM | TGI (NCI/ADR-RES ovarian): 58 µM | TGI (OVCAR-3 ovarian): 40.8 µM | TGI (NCI-H522 lung): > 100 µM | TGI (MDA-MB-231 breast): 84.5 µM | TGI (SK-MEL-2 melanoma): 96.4 µM | TGI (NCI-H23 lung): 47 µM | TGI (SNB-75 CNS): > 100 µM | TGI (786-0 renal): 46.6 µM | TGI (HOP-92 NSCLC): 56.8 µM | TGI (MDA-MB-435): > 100 µM | TGI (UACC-257 melanoma): 67.3 µM | TGI (U251 CNS): > 100 µM

CCCCOc1ccc2c(c1)CC[C@@H]1[C@@H]2CC[C@]2(C)C(=O)N(CCCC)C(=O)C[C@@H]12
TGI (HCC-2998 colon): > 100 µM | TGI (MOLT-4 leukemia): > 100 µM | TGI (KM12 colon): > 100 µM | TGI (IGROV1 ovarian): > 100 µM | TGI (BT-549 breast): > 100 µM | TGI (SK-OV-3 ovarian): > 100 µM | TGI (A498 renal): > 100 µM | TGI (CAKI-1 renal): > 100 µM | TGI (NCI-H460 lung): > 100 µM | TGI (HCT-15 colon): > 100 µM | TGI (UACC-62 melanoma): > 100 µM | TGI (SF-295 CNS): > 100 µM | TGI (M14 melanoma): > 100 µM | TGI (DU-145 prostate): > 100 µM | TGI (SR leukemia): > 100 µM | TGI (T-47D breast): > 100 µM | TGI (RPMI-8226 leukemia): > 100 µM | TGI (SN12C renal): > 100 µM | TGI (MDA-N): > 100 µM | TGI (COLO 205 colon): > 100 µM | TGI (UO-31 renal): > 100 µM | TGI (CCRF-CEM leukemia): > 100 µM | TGI (HS 578T breast): > 100 µM | TGI (PC-3 prostate): > 100 µM | TGI (HL-60(TB) leukemia): > 100 µM | TGI (MALME-3M melanoma): > 100 µM | TGI (OVCAR-5 ovarian): > 100 µM | TGI (OVCAR-8 ovarian): > 100 µM | TGI (HT29 colon): > 100 µM | TGI (K-562 leukemia): > 100 µM | TGI (SK-MEL-5 melanoma): > 100 µM | TGI (SNB-19 CNS): > 100 µM | TGI (HOP-62 NSCLC): > 100 µM | TGI (MCF7 breast): > 100 µM | TGI (NCI-H226 lung): > 100 µM | TGI (NCI/ADR-RES ovarian): > 100 µM | TGI (OVCAR-3 ovarian): > 100 µM | TGI (NCI-H522 lung): > 100 µM | TGI (MDA-MB-231 breast): > 100 µM | TGI (SK-MEL-2 melanoma): > 100 µM | TGI (NCI-H23 lung): > 100 µM | TGI (SNB-75 CNS): > 100 µM | TGI (HCT-116 colon): > 100 µM | TGI (HOP-92 NSCLC): > 100 µM | TGI (MDA-MB-435): > 100 µM | TGI (U251 CNS): > 100 µM
